19 compounds from patent US12103919B2, “3-(5-oxy)-1-oxoisoindolin-2-yl)piperidine-2,6-dione derivatives and uses thereof” (NOVARTIS AG, priority 2021, dated 2024) can be followed below.

This assay concerns the target T1, WIZ (Homo sapiens, UniProt O95785+Q96SW2).
T1 construct: expressed in transfected cells
Briefly: Quantification of WIZ protein levels in HiBit tag fusion protein assay (293T cells). The format is cell-based. More on the design: Dmax: dose or concentration left out as unconfirmed. To be noted: for Dmax / remaining activity at 25 µM / Dmax at 25 µM: HEK-293T; for Dmax / Dmax at 25 µM: read-out: % degradation of WIZ (100 − Amax); for remaining activity at 25 µM: read-out: WIZ Amax; for DC50: WIZ HiBit assay in 293T cells, about 18 hours, 10-point 5-fold dilution, top 25 μM, read-out: WIZ AC50; for Dmax at 25 µM / % degradation of WIZ (100 − Amax): 100 − Amax, at 25 uM. As to the method:
The HiBit system from Promega was used to develop high-throughput and quantitative assays to measure changes in WIZ protein levels in response to compounds. The HiBit tag was derived from a split Nanoluciferase and has the following protein sequence: […] (SEQ ID NO: 1). The complementary fragment of Nanoluciferase (known as LgBit, from Promega), was added to the HiBit tag to form an active Nanoluciferase enzyme whose activity can be precisely measured. In this way, the levels of a fusion protein with the HiBit tag can be quantified in cell lysates.
Lentiviral vectors, based on the Invitrogen™ pLenti6.2/V5 DEST backbone were constructed that places the HiBit tag upstream of WIZ and expressed the fusion protein from an HSVTK promotor.
To ensure moderate and consistent expression of the HiBit-WIZ fusion protein across all cells in the population, stable cell lines were constructed from cells harboring a single copy of the construct. Lentivirus packaged with the constructs were made using the ViraPowerTMkit from Invitrogen™. 293T cells from ATCC (Catalog number: CRL-3216), were infected with the virus at low multiplicity of infection and selected by 5 μg/mL blasticidin in culture media for 2 weeks.
The levels of HiBit-WIZ tagged fusion proteins in compound-treated cell lines were measured as follows:
On day 1, cells were diluted to 1.0×10^6 cells/ml in normal growth medium. 20 μL of cell suspension were plated in each well of a solid white 384-well plate. Plates were incubated overnight in a 37° C. and 5% CO2 humidified tissue culture incubator.
On day 2, serial dilutions of compounds were made in 384-well plates. Compound plates were set up with DMSO in columns 1, 2, 23, 24, and 10-point compound dilution series in column 3-12 and column 13-22. 10 mM stock solution of compound were placed into column 3 or 13 and a 1:5 serial dilution was carried out until there was a 10-point dilution series per compound. 50 nL of diluted compounds were transferred into the plated cells by Echo® (Labcyte) acoustic transfer. The highest concentration of compound was 25 μM. Plates were incubated overnight (about 18 hours) in a 37° C. and 5% CO2 humidified tissue culture incubator.
On day 3, plates were removed from the incubator and allowed to equilibrate at room temperature for 60 minutes. HiBit substrate (Nano-Glo® HiBit Lytic Detection System, Promega Catalogue number: N3050) was added as described by the manufacturers protocols. Plates were incubated at room temperature for 30 minutes and luminescence was read using an EnVision® reader (PerkinElmer®). Data was analyzed and visualized using the Spotfire® software package.
WIZ Amax reflects the DMSO-normalized, curve-fitted percentage of WIZ-HiBit remaining at 25 uM. It was calculated by normalizing DMSO controls to 100%, parametric curve fitting of the dose response data (10-point, 5-fold), followed by calculation of response at 25 uM using the fitted equation.

Setting [1] is: DMSO-normalized, curve-fitted percentage of WIZ-HiBit remaining at 25 uM.

Like-named read-outs stand apart in the source and are kept apart here. Some results are limits rather than exact numbers.

T1 sequence (O95785 whole entry): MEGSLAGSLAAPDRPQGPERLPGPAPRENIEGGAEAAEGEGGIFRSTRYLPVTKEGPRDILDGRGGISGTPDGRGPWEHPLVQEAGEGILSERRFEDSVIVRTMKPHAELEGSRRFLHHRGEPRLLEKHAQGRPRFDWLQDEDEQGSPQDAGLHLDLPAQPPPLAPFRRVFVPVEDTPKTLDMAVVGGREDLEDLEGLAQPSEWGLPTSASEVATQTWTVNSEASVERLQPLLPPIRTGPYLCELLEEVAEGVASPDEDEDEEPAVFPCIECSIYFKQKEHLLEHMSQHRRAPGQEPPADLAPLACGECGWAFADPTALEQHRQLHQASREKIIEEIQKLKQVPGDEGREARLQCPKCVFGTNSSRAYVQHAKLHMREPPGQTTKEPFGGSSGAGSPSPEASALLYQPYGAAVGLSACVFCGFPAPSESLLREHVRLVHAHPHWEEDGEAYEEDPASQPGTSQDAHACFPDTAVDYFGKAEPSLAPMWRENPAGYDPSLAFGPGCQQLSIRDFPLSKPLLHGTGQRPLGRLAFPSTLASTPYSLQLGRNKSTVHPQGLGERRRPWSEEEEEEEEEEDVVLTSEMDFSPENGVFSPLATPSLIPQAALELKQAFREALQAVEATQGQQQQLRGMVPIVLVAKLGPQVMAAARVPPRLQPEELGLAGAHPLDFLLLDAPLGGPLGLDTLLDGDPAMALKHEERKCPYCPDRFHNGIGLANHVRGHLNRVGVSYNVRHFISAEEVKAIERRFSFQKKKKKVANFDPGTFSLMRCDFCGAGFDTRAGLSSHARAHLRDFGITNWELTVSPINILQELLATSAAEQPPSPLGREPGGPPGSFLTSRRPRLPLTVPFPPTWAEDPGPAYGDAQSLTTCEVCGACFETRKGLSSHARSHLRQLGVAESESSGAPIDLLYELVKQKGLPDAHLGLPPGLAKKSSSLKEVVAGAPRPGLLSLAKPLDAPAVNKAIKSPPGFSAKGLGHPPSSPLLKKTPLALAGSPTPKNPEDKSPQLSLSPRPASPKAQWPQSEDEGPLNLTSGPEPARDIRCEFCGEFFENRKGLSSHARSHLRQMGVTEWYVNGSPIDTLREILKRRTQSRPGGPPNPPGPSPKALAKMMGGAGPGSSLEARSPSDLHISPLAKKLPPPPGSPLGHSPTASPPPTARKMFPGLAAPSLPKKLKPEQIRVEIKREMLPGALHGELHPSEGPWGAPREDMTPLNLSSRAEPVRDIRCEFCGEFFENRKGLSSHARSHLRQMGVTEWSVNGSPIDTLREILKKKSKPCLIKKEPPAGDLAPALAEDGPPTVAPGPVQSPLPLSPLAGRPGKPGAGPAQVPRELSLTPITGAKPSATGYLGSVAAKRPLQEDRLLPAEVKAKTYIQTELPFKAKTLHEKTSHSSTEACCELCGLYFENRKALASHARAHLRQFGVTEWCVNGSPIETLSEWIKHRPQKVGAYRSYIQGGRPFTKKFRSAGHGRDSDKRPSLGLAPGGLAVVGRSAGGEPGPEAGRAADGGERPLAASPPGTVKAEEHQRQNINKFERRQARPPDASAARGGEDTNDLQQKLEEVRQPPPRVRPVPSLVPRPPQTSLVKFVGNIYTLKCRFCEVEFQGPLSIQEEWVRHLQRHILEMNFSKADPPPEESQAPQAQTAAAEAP
T1 sequence (Q96SW2 whole entry): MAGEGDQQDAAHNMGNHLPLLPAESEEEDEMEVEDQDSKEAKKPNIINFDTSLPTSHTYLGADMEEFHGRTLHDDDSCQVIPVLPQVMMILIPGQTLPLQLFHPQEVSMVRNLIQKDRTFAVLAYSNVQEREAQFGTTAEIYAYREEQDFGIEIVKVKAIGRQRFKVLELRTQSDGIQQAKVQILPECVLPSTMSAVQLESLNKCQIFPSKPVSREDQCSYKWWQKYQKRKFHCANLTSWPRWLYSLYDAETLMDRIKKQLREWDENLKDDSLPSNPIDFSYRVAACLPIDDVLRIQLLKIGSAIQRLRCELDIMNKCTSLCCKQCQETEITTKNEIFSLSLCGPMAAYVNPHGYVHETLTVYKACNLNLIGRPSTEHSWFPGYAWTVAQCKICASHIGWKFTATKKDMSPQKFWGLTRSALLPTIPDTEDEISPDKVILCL
T1 sequence (Q16531 whole entry partner): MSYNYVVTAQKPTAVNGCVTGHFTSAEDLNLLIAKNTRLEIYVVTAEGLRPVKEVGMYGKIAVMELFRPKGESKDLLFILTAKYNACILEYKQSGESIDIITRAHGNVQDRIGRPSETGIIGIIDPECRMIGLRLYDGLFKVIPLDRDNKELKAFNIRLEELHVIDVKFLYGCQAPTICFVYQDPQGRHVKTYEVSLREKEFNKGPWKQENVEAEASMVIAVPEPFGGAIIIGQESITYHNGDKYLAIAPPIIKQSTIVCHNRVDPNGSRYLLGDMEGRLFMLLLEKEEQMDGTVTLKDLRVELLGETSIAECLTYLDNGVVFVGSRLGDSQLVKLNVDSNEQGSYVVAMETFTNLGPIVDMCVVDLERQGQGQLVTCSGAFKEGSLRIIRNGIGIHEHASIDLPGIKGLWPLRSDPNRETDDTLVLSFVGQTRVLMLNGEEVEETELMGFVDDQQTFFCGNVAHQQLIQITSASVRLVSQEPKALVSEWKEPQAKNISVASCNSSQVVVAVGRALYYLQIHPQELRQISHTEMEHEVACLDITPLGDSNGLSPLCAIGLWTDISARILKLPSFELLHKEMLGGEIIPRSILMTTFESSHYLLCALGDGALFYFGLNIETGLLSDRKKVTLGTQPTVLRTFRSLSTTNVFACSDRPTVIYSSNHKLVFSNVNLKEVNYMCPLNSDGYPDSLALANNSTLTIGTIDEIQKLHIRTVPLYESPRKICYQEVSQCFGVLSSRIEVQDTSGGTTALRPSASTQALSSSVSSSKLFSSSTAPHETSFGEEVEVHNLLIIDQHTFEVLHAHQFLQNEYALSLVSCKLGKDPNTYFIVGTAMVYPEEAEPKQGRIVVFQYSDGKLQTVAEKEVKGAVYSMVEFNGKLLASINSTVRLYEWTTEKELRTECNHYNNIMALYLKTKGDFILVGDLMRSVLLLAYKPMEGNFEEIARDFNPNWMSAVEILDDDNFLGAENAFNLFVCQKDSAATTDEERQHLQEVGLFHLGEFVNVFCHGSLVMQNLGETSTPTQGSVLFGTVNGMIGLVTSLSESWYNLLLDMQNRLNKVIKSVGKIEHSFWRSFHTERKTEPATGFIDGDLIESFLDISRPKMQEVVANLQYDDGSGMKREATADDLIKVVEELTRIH

As for `CCN1CC[C@H](F)[C@H](Oc2ccc3c(c2)CN(C2CCC(=O)NC2=O)C3=O)C1` (relative stereo) [Example 58, 3-(5-(((3R*,4S*)-1-ethyl-4-fluoropiperidin-3-yl)oxy)-1-oxoisoindolin-2-yl)piperidine-2,6-dione], the Dmax stood at 60.7%, the remaining activity at 25 µM was determined as 39.3% and the DC50 amounted to 4.9 nM.
As to `CCN1CCC[C@H](Oc2ccc3c(c2)CN(C2CCC(=O)NC2=O)C3=O)C1` (stereo partly drawn) [Example 2, 3-(5-(((S)-1-ethylpiperidin-3-yl)oxy)-1-oxoisoindolin-2-yl)piperidine-2,6-dione], the Dmax was determined as 11.1%, the remaining activity at 25 µM was 88.9% and the DC50 stood at 360 nM.
Take `CCN1CC[C@@H](Oc2ccc3c(c2)CN(C2CCC(=O)NC2=O)C3=O)C1` (stereo partly drawn) [Example 39, 3-(5-(((R)-1-ethylpyrrolidin-3-yl)oxy)-1-oxoisoindolin-2-yl)piperidine-2,6-dione]: the Dmax amounted to 52.1%, the remaining activity at 25 µM worked out at 47.9% and the DC50 was 210 nM.
For the compound `CCN1C[C@H]2C[C@H]2[C@H](Oc2ccc3c(c2)CN(C2CCC(=O)NC2=O)C3=O)C1` (single isomer, unassigned) [Example 20, 3-(5-(((1S*,5S*,6R*)-3-ethyl-3-azabicyclo[4.1.0]heptan-5-yl)oxy)-1-oxoisoindolin-2-yl)piperidine-2,6-dione], the Dmax at 25 µM stood at 24.1% and the DC50 is 3750 nM. Further, the remaining activity at 25 µM under setting [1] is 75.9%.
On to `CCN1CC(Oc2ccc3c(c2)CN(C2CCC(=O)NC2=O)C3=O)CCC1(C)C` (stereo not drawn) [Example 88-2, 3-(5-((1-ethyl-6,6-dimethylpiperidin-3-yl)oxy)-1-oxoisoindolin-2-yl)piperidine-2,6-dione], for which the Dmax is 79.5%, the remaining activity at 25 µM was found to be 20.5% and the DC50 was determined as 0.7 nM.
With `O=C1CCC(N2Cc3cc(O[C@@H]4CCCN(CC5COC5)C4)ccc3C2=O)C(=O)N1` (stereo partly drawn) [Example 4, 3-(5-(((R)-1-(oxetan-3-ylmethyl)piperidin-3-yl)oxy)-1-oxoisoindolin-2-yl)piperidine-2,6-dione], the Dmax at 25 µM worked out at 35.6% and the DC50 came out at 110 nM. The remaining activity at 25 µM under setting [1] came to 64.4%.
As to `CCN1CC[C@@H](F)[C@H](Oc2ccc3c(c2)CN(C2CCC(=O)NC2=O)C3=O)C1` (relative stereo) [Example 56, 3-(5-(((3R*,4R*)-1-ethyl-4-fluoropiperidin-3-yl)oxy)-1-oxoisoindolin-2-yl)piperidine-2,6-dione], the Dmax was determined as 16.2%, the remaining activity at 25 µM came out at 83.8% and the DC50 is 950 nM.
As for `CCN1C[C@H](C)C[C@@H](Oc2ccc3c(c2)CN(C2CCC(=O)NC2=O)C3=O)C1` (mixture of isomers) [Example 75-1, 3-(5-(((3R,5R)-1-ethyl-5-methylpiperidin-3-yl)oxy)-1-oxoisoindolin-2-yl)piperidine-2,6-dione], the Dmax is 86.6%, the remaining activity at 25 µM is 13.4% and the DC50 came out at 0.9 nM.
Take `CCN1C[C@H](O)C[C@@H](Oc2ccc3c(c2)CN(C2CCC(=O)NC2=O)C3=O)C1` (mixture of isomers) [Example 34, rac-3-(5-(((3R,5R)-1-Ethyl-5-hydroxypiperidin-3-yl)oxy)-1-oxoisoindolin-2-yl)piperidine-2,6-dione]: the Dmax stood at 80%, the remaining activity at 25 µM is 20% and the DC50 amounted to 15 nM.
Consider `CC[C@H](C)N1CCC(C)(C)C(Oc2ccc3c(c2)CN(C2CCC(=O)NC2=O)C3=O)C1` (single isomer, unassigned) [Example 50], for which the DC50 was more than 25000 nM and the “% degradation of WIZ (100 − Amax)” value came to 2.38%. Further, the remaining activity at 25 µM under setting [1] was determined as 97.6%.
For the compound `CCC[C@H]1CC[C@@H](Oc2ccc3c(c2)CN(C2CCC(=O)NC2=O)C3=O)CN1CC` (stereo partly drawn) [Example 87-2, 3-(5-(((3R,6S)-1-ethyl-6-propylpiperidin-3-yl)oxy)-1-oxoisoindolin-2-yl)piperidine-2,6-dione], the Dmax was determined as 89.7%, the remaining activity at 25 µM is 10.3% and the DC50 is 0.6 nM.
`CC(C)N1C[C@H](Oc2ccc3c(c2)CN(C2CCC(=O)NC2=O)C3=O)CC[C@@H]1C` (stereo partly drawn) [Example 81, 3-(5-(((3R,6S)-1-isopropyl-6-methylpiperidin-3-yl)oxy)-1-oxoisoindolin-2-yl)piperidine-2,6-dione]: the Dmax at 25 µM was found to be 89.3% and the DC50 was 2 nM. For the same compound, the remaining activity at 25 µM under setting [1] amounted to 10.7%.
On to `O=C1CCC(N2Cc3cc(O[C@@H]4CCCN(CC5CCCCC5)C4)ccc3C2=O)C(=O)N1` (stereo partly drawn) [Example 6, 3-(5-(((R)-1-(cyclohexylmethyl)piperidin-3-yl)oxy)-1-oxoisoindolin-2-yl)piperidine-2,6-dione], for which the Dmax at 25 µM came out at 13.3% and the DC50 was 31 nM. For the same compound, the remaining activity at 25 µM under setting [1] was determined as 86.7%.
`O=C1CCC(N2Cc3cc(O[C@@H]4CCCN(C5CC6(COC6)C5)C4)ccc3C2=O)C(=O)N1` (stereo partly drawn) [Example 11, 3-(5-(((R)-1-(2-oxaspiro[3.3]heptan-6-yl)piperidin-3-yl)oxy)-1-oxoisoindolin-2-yl)piperidine-2,6-dione]: the Dmax at 25 µM amounted to 43.6% and the DC50 is 110 nM. Moreover, the remaining activity at 25 µM under setting [1] was 56.4%.
Turning to `CCN1C[C@H](C)C[C@@H](Oc2ccc3c(c2)CN(C2CCC(=O)NC2=O)C3=O)C1` (single isomer, unassigned) [Example 76-2], the DC50 is 0.6 nM and the “% degradation of WIZ (100 − Amax)” value is 87.18%. The “WIZ Amax” value under setting [1] is listed as 12.82%.
Taken in the same sequence, the figures for `CCN1CC(Oc2ccc3c(c2)CN(C2CCC(=O)NC2=O)C3=O)CC2(CC2)C1` (single isomer, unassigned) [Example 19, 3-(5-((5-ethyl-5-azaspiro[2.5]octan-7-yl)oxy)-1-oxoisoindolin-2-yl)piperidine-2,6-dione] were 12 nM, 62.87% and 37.13%.
`C[C@@H]1C[C@@H](Oc2ccc3c(c2)CN(C2CCC(=O)NC2=O)C3=O)CN(S(C)(=O)=O)C1` (stereo partly drawn) [Example 80, 3-(5-(((3R,5R)-5-methyl-1-(methylsulfonyl)piperidin-3-yl)oxy)-1-oxoisoindolin-2-yl)piperidine-2,6-dione]: the Dmax at 25 µM stood at 71.4% and the DC50 turned out to be 23.4 nM. The remaining activity at 25 µM under setting [1] is 28.6%.
With `CCN1C[C@H](C)C[C@@H](Oc2ccc3c(c2)CN(C2CCC(=O)NC2=O)C3=O)C1` (single isomer, unassigned) [Example 76-1], the Dmax at 25 µM stood at 86.2% and the DC50 is 1.6 nM. Moreover, under setting [1], the remaining activity at 25 µM amounted to 13.8%.
With `C[C@H]1CC[C@@H](Oc2ccc3c(c2)CN(C2CCC(=O)NC2=O)C3=O)CN1C1CCC1` (stereo partly drawn) [Example 82, 3-(5-(((3R,6S)-1-cyclobutyl-6-methylpiperidin-3-yl)oxy)-1-oxoisoindolin-2-yl)piperidine-2,6-dione], the Dmax was 85%, the remaining activity at 25 µM worked out at 15% and the DC50 turned out to be 0.5 nM.
